# Experimental data as given in ChEMBL document CHEMBL2029314, “Discovery of HIV fusion inhibitors targeting gp41 using a comprehensive α-helix mimetic library” (Bioorg Med Chem Lett, 2012).
# Test: Displacement of C18-Aib-lucifer yellow from HIV1 envelope glycoprotein gp41 Fe(env2.0)3 by fluorescence assay
# Design: species or system Human immunodeficiency virus 1
# Conditions: not given
row,SMILES,Ki
1,CSCC[C@H](N)C(=O)Nc1ccc(C(=O)N[C@@H](CCc2ccccc2)C(=O)O)cc1OCc1ccc(Cl)cc1,< 25 µM
2,N[C@@H](CCc1ccccc1)C(=O)Nc1ccc(C(=O)N[C@@H](CCc2ccccc2)C(=O)O)cc1OCc1ccc(Cl)cc1,< 25 µM
3,N[C@@H](Cc1ccc(O)cc1)C(=O)Nc1ccc(C(=O)N[C@@H](CCc2ccccc2)C(=O)O)cc1OCc1ccc(Cl)cc1,< 25 µM
4,N[C@@H](Cc1c[nH]c2ccccc12)C(=O)Nc1ccc(C(=O)N[C@@H](CCc2ccccc2)C(=O)O)cc1OCc1ccc(Cl)cc1,< 25 µM
5,N[C@@H](CC(=O)O)C(=O)Nc1ccc(C(=O)N[C@@H](Cc2c[nH]c3ccccc23)C(=O)O)cc1OCCc1c[nH]c2ccccc12,< 10 µM
6,N[C@@H](CC(=O)O)C(=O)Nc1ccc(C(=O)N[C@H](CC(=O)O)Cc2c[nH]c3ccccc23)cc1OCCc1c[nH]c2ccccc12,0.6 µM
7,CSCC[C@H](N)C(=O)Nc1ccc(C(=O)N[C@@H](Cc2c[nH]c3ccccc23)C(=O)O)cc1OCCc1c[nH]c2ccccc12,< 10 µM
8,N[C@@H](CC(=O)O)C(=O)Nc1ccc(C(=O)NCCc2c[nH]c3ccccc23)cc1OCCc1c[nH]c2ccccc12,18 µM
9,CC[C@H](C)[C@H](N)C(=O)Nc1ccc(C(=O)N[C@@H](CCc2ccccc2)C(=O)O)cc1OCc1ccc(Cl)cc1,< 25 µM
10,N[C@@H](Cc1ccc2ccccc2c1)C(=O)Nc1ccc(C(=O)N[C@@H](Cc2c[nH]c3ccccc23)C(=O)O)cc1OCCc1c[nH]c2ccccc12,< 10 µM
11,CSCC[C@H](N)C(=O)Nc1ccc(C(=O)N[C@@H](CCc2ccccc2)C(=O)O)cc1OCc1ccc2ccccc2c1,< 10 µM
12,CC(C)C[C@H](NC(=O)c1ccc(NC(=O)[C@@H](N)CO)c(OCCc2c[nH]c3ccccc23)c1)C(=O)O,< 10 µM
13,CC(C)C[C@H](NC(=O)c1ccc(NC(=O)[C@@H](N)CC(=O)O)c(OCCc2c[nH]c3ccccc23)c1)C(=O)O,< 10 µM
14,CC(C)C[C@H](NC(=O)c1ccc(NC(=O)[C@@H](N)Cc2ccc3ccccc3c2)c(OCCc2c[nH]c3ccccc23)c1)C(=O)O,< 10 µM
15,CC(C)C[C@H](NC(=O)c1ccc(NC(=O)[C@@H](N)CC(N)=O)c(OCCc2c[nH]c3ccccc23)c1)C(=O)O,< 10 µM
16,CC(C)C[C@H](N)C(=O)Nc1ccc(C(=O)N[C@@H](CCc2ccccc2)C(=O)O)cc1OCc1ccc2ccccc2c1,< 10 µM
17,CC[C@H](C)[C@H](N)C(=O)Nc1ccc(C(=O)N[C@@H](CCc2ccccc2)C(=O)O)cc1OCc1ccc2ccccc2c1,< 10 µM
18,N[C@@H](CC(=O)O)C(=O)Nc1ccc(C(=O)N[C@@H](CCc2ccccc2)C(=O)O)cc1OCc1ccc2ccccc2c1,< 10 µM
19,N[C@@H](Cc1ccc(O)cc1)C(=O)Nc1ccc(C(=O)N[C@@H](CCc2ccccc2)C(=O)O)cc1OCc1ccc2ccccc2c1,< 10 µM

row,SMILES,Ki
1,N[C@@H](Cc1c[nH]c2ccccc12)C(=O)Nc1ccc(C(=O)N[C@@H](CCc2ccccc2)C(=O)O)cc1OCc1ccc2ccccc2c1,< 10 µM
2,N[C@@H](CCc1ccccc1)C(=O)Nc1ccc(C(=O)N[C@@H](CCc2ccccc2)C(=O)O)cc1OCc1ccc2ccccc2c1,< 10 µM
3,C[C@H](N)C(=O)Nc1ccc(C(=O)N[C@@H](Cc2c[nH]c3ccccc23)C(=O)O)cc1OCCc1c[nH]c2ccccc12,< 10 µM
4,CC[C@H](N)C(=O)Nc1ccc(C(=O)N[C@@H](Cc2c[nH]c3ccccc23)C(=O)O)cc1OCCc1c[nH]c2ccccc12,< 10 µM
5,CC(C)[C@H](N)C(=O)Nc1ccc(C(=O)N[C@@H](Cc2c[nH]c3ccccc23)C(=O)O)cc1OCCc1c[nH]c2ccccc12,< 10 µM
6,CC(C)C[C@H](N)C(=O)Nc1ccc(C(=O)N[C@@H](Cc2c[nH]c3ccccc23)C(=O)O)cc1OCCc1c[nH]c2ccccc12,< 10 µM
7,CC[C@H](C)[C@H](N)C(=O)Nc1ccc(C(=O)N[C@@H](Cc2c[nH]c3ccccc23)C(=O)O)cc1OCCc1c[nH]c2ccccc12,< 10 µM
8,N[C@@H](CO)C(=O)Nc1ccc(C(=O)N[C@@H](Cc2c[nH]c3ccccc23)C(=O)O)cc1OCCc1c[nH]c2ccccc12,< 10 µM
9,C[C@@H](O)[C@H](N)C(=O)Nc1ccc(C(=O)N[C@@H](Cc2c[nH]c3ccccc23)C(=O)O)cc1OCCc1c[nH]c2ccccc12,< 10 µM
10,N[C@@H](Cc1ccccc1)C(=O)Nc1ccc(C(=O)N[C@@H](Cc2c[nH]c3ccccc23)C(=O)O)cc1OCCc1c[nH]c2ccccc12,< 10 µM
11,N[C@@H](Cc1ccc(O)cc1)C(=O)Nc1ccc(C(=O)N[C@@H](Cc2c[nH]c3ccccc23)C(=O)O)cc1OCCc1c[nH]c2ccccc12,< 10 µM
12,COc1ccc(C[C@H](N)C(=O)Nc2ccc(C(=O)N[C@@H](Cc3c[nH]c4ccccc34)C(=O)O)cc2OCCc2c[nH]c3ccccc23)cc1,0.7 µM
13,N[C@@H](Cc1c[nH]c2ccccc12)C(=O)Nc1ccc(C(=O)N[C@@H](Cc2c[nH]c3ccccc23)C(=O)O)cc1OCCc1c[nH]c2ccccc12,< 10 µM
14,NC(=O)C[C@H](N)C(=O)Nc1ccc(C(=O)N[C@@H](Cc2c[nH]c3ccccc23)C(=O)O)cc1OCCc1c[nH]c2ccccc12,0.8 µM
15,COC(=O)[C@H](Cc1c[nH]c2ccccc12)NC(=O)c1ccc(NC(=O)[C@@H](N)CC(=O)O)c(OCCc2c[nH]c3ccccc23)c1,21 µM
16,O=C(O)CCC(=O)Nc1ccc(C(=O)N[C@@H](Cc2c[nH]c3ccccc23)C(=O)O)cc1OCCc1c[nH]c2ccccc12,0.6 µM
17,COc1ccc(C[C@H](N)C(=O)Nc2ccc(C(=O)N[C@H](CC(=O)O)Cc3c[nH]c4ccccc34)cc2OCCc2c[nH]c3ccccc23)cc1,50 µM
18,COc1ccc(C[C@H](N)C(=O)Nc2ccc(C(=O)N[C@H](CCC(=O)O)Cc3c[nH]c4ccccc34)cc2OCCc2c[nH]c3ccccc23)cc1,100 µM

# Test: Inhibition of HIV1 envelope glycoprotein 41-mediated membrane fusion between virus-transfected human HL2/3 cells and human TZM-bl cells after 6 hrs by luciferase reporter assay
# Format: cell-based
# Conditions: Human immunodeficiency virus 1, TZM-bl
row,SMILES,IC50
1,CC(C)C[C@H](NC(=O)c1ccc(NC(=O)[C@@H](N)Cc2c[nH]c3ccccc23)c(OCCc2c[nH]c3ccccc23)c1)C(=O)O,5 µM
2,COc1ccc(C[C@H](N)C(=O)Nc2ccc(C(=O)N[C@@H](Cc3c[nH]c4ccccc34)C(=O)O)cc2OCCc2c[nH]c3ccccc23)cc1,8 µM
3,NC(=O)C[C@H](N)C(=O)Nc1ccc(C(=O)N[C@@H](Cc2c[nH]c3ccccc23)C(=O)O)cc1OCCc1c[nH]c2ccccc12,6 µM
4,CC(C)[C@H](NC(=O)c1ccc(N)c(OCc2ccc(O)cc2)c1)C(=O)O,< 30 µM
5,CC[C@H](NC(=O)c1ccc(N)c(OCc2ccc(O)cc2)c1)C(=O)O,< 30 µM
6,CSCC[C@H](NC(=O)c1ccc(N)c(OCc2ccc(O)cc2)c1)C(=O)O,< 30 µM
7,Nc1ccc(C(=O)N[C@@H](CO)C(=O)O)cc1OCc1ccc(O)cc1,< 30 µM
8,Nc1ccc(C(=O)N[C@@H](Cc2ccc(O)cc2)C(=O)O)cc1OCc1ccc(O)cc1,< 30 µM
9,NC(=O)C[C@H](NC(=O)c1ccc(N)c(OCc2ccc(O)cc2)c1)C(=O)O,< 30 µM
10,Nc1ccc(C(=O)N[C@@H](Cc2ccc3ccccc3c2)C(=O)O)cc1OCc1ccc(O)cc1,< 30 µM
11,CC[C@H](C)[C@H](NC(=O)c1ccc(N)c(OCCc2c[nH]c3ccccc23)c1)C(=O)O,< 30 µM
12,CC(C)C[C@H](NC(=O)c1ccc(N)c(OCCc2c[nH]c3ccccc23)c1)C(=O)O,< 30 µM
13,Nc1ccc(C(=O)N[C@@H](CCc2ccccc2)C(=O)O)cc1OCCc1c[nH]c2ccccc12,< 30 µM
14,Nc1ccc(C(=O)N[C@@H](Cc2ccc(Cl)cc2)C(=O)O)cc1OCCc1c[nH]c2ccccc12,< 30 µM
15,Nc1ccc(C(=O)N[C@@H](Cc2c[nH]c3ccccc23)C(=O)O)cc1OCCc1c[nH]c2ccccc12,< 30 µM
16,CC[C@H](C)[C@H](NC(=O)c1ccc(N)c(OCc2ccc(Cl)cc2)c1)C(=O)O,< 30 µM
17,Nc1ccc(C(=O)N[C@@H](Cc2ccc3ccccc3c2)C(=O)O)cc1OCc1ccc(Cl)cc1,< 30 µM
18,CC[C@H](C)[C@H](NC(=O)c1ccc(N)c(OCc2ccc3ccccc3c2)c1)C(=O)O,< 30 µM
19,CC(C)C[C@H](NC(=O)c1ccc(N)c(OCc2ccc3ccccc3c2)c1)C(=O)O,< 30 µM
20,Nc1ccc(C(=O)N[C@@H](CCc2ccccc2)C(=O)O)cc1OCc1ccc2ccccc2c1,< 30 µM
21,Nc1ccc(C(=O)N[C@@H](CC(=O)O)C(=O)O)cc1OCc1ccc2ccccc2c1,< 30 µM
22,Nc1ccc(C(=O)N[C@@H](Cc2ccccc2)C(=O)O)cc1OCc1ccc2ccccc2c1,< 30 µM
23,Nc1ccc(C(=O)N[C@@H](Cc2ccc(O)cc2)C(=O)O)cc1OCc1ccc2ccccc2c1,< 30 µM
24,COc1ccc(C[C@H](NC(=O)c2ccc(N)c(OCc3ccc4ccccc4c3)c2)C(=O)O)cc1,< 30 µM
